Assay results as given in patent US10093670B2, “Azabenzimidazole derivative having AMPK-activating activity” (Shionogi & Co., Ltd., priority 2011, dated 2018).

Legend:
human AMPK α1β1γ1 enzyme = target: T1, human AMPK α1β1γ1 enzyme (Homo sapiens, UniProt Q13131+Q9Y478); assay: Evaluation of AMPK activator, Test Example 1 (mobility-shift kinase assay, FL-Peptide 7); type: biochemical; conditions: for EC150 (compound concentration showing 150% relative to the control (100%)): human AMPK α1β1γ1, 25° C., 2 hours, 0.2 mM ATP final; for Emax / Emax (maximum rate of increase in activity within the measurement range): human AMPK α1β1γ1, relative to control (100%); for Emax: read-out: Emax (maximum rate of increase in activity within the measurement range)
T1 construct: purchased Carna Biosciences, Inc
Protocol: The obtained liquid was left to stand for 10 minutes.
The obtained liquid was allowed to react at 25° C. for 2 hours, and 10 μl of 20 mM EDTA was then added thereto to stop the reaction.
(§1) To detect phosphorylated fluorescent substrates, the reaction liquid was applied to a measuring device, LabChip EZ Reader II manufactured by Caliper Life Science, Inc., for detecting fluorescence by using differences in mobility due to differences in charge. The setting conditions for the device were pressure, −1.5 PSI; upstream voltage, −2250 V; downstream voltage, −400 V; post sample buffer sip time, 40 seconds; final delay, 120 seconds; and peak order, Product First.
(§2) A conversion rate was calculated from the peak heights of the resulting substrate and product. The conversion rate when not containing a compound was used as a control, and a concentration dependent curve was made by plotting the rate of increase in activity to the control at each concentration of a compound.

Human AMPK α2β2γ1 = target: T2, Human AMPK α2β2γ1 (Homo sapiens, UniProt O43741+P54646); assay: Evaluation of AMPK activator, Test Example 2 (CaMKK2-phosphorylated enzyme, mobility-shift kinase assay); type: biochemical; conditions: for EC150 (compound concentration showing 150% relative to the control (100%)): human AMPK α2β2γ1 phosphorylated by CaMKK2, 25° C., 2 hours; for Emax: human AMPK α2β2γ1 phosphorylated by CaMKK2, relative to control (100%), read-out: Emax (maximum rate of increase in activity within the measurement range)
T2 construct: The full length cDNAs of human AMPK β2 (NM_005399.3) and human AMPK α2 (NM_006252.3) were inserted; the full length cDNA of human AMPK γ1 (NM_002733.3) had been inserted into pET28b(+); 6xHis (N); made in house; host or cells: Escherichia coli BL21 CodonPlus (DE3)-RIL (AMPK); BL21 Star (DE3) (CaMKKβ)
Protocol: The full length cDNAs of human AMPK β2 (NM_005399.3) and human AMPK α2 (NM_006252.3) were inserted into the MCS1 and MCS2 of the pETDuet-1 vector to prepare a human AMPK β2 and human AMPK α2 (6× His tag at the 5′ terminus) expressing plasmid. The plasmid was contransfected with an expression plasmid, in which the full length cDNA of human AMPK γ1 (NM_002733.3) had been inserted into pET28b(+), into BL21 CodonPlus (DE3)-RIL to obtain an expression strain. The expression strain was cultured in TB medium, followed by induction with 0.5 mM IPTG, and cultured at 25° C. for 3 hours and then harvested. After ultrasonication, supernatant was collected and applied to Histrap FF column (GE) and RESOUECE Q column (GE) to prepare 12.5 mg of purified sample containing three types of subunit from 1.8 L of broth.
An expression vector, in which the full length cDNA of human CAMKK β (NM_172226.1) had been inserted into pGEX-6P-3, was transfected into BL21 Star (DE3). The expression strain was cultured in TB medium, followed by induction with 0.5 mM IPTG, and cultured at 25° C. for 3 hours and then harvested. After ultrasonication, supernatant was collected and applied to GSTrap FF column (GE) to prepare 14 mg of GST-fused CAMKK β from 720 ml of broth.
Evaluation Method of an Activator for AMP-activated Protein Kinase (AMPK) (Test Example 2)
Thus, phosphorylation treatment was carried out as pretreatment.
Human AMPK α2β2γ1 in an amount to give a conversion rate of approximately 10% by reaction for 2 hours, and CaMKK2 in an amount capable of sufficiently imparting activity to AMPK for one hour were mixed in a buffer solution consisting of a 50 mM HEPES-NaOH buffer solution (pH 7.0), 100 mM NaCl, 5 mM magnesium chloride, 0.1% bovine serum albumin, 0.2 mM sodium orthovanadate(V), 1 mM ethylene glycol-bis(2-aminoethyl ether)-N,N,N′,N′-tetraacetic acid (EGTA), 5 mM disodium β-glycerophosphate, 1 mM dithiothreitol and 0.2 mM ATP, and the obtained liquid was left to stand at 25° C. for 1 to 1.5 hours to sufficiently phosphorylate AMPK.
After that, to the enzyme liquid, which had been subjected to phosphorylation treatment, a compound dissolved in DMSO was added so as to have a 1% DMSO concentration. The obtained liquid was left to stand for 10 minutes.
To the liquid, a substrate solution consisting of a 50 mM HEPES-NaOH buffer solution (pH 7.0), 100 mM NaCl, 10 mM magnesium chloride, 0.1% bovine serum albumin, 0.2 mM sodium orthovanadate(V), 1 mM ethylene glycol-bis(2-aminoethyl ether)-N,N,N′,N′-tetraacetic acid (EGTA), 5 mM disodium β-glycerophosphate, 2 mM dithiothreitol, 0.4 mM ATP and 3 μM FL-Peptide 7 (manufactured by Caliper Life Sciences, Inc.) was added in equal amount (10 μl in total). The obtained liquid was allowed to react at 25° C. for 2 hours, and 10 μl of 20 mM EDTA was then added thereto to stop the reaction.
as §1, §2

T2 sequence (P54646 whole entry): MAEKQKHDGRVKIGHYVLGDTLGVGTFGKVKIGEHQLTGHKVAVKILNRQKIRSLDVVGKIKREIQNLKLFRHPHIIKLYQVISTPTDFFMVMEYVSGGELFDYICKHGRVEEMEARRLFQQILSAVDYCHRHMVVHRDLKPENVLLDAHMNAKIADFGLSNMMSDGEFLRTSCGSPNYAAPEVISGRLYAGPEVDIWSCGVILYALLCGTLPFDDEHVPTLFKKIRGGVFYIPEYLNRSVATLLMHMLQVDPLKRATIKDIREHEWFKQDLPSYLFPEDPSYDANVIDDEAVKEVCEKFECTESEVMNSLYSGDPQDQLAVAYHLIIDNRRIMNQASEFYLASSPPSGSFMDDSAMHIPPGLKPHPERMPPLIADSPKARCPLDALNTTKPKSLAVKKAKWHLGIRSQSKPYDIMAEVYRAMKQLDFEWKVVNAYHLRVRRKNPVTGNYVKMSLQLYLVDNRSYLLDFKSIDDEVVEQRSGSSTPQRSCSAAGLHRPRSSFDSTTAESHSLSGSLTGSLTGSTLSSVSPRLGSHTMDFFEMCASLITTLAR
T2 sequence (O43741 whole entry): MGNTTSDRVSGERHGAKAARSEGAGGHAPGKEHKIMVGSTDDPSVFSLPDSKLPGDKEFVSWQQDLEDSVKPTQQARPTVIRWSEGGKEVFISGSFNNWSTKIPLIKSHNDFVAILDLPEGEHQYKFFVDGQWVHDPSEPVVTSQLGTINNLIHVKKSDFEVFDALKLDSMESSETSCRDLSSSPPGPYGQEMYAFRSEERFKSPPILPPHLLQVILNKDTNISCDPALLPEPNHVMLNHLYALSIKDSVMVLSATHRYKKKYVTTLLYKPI
T2 sequence (P54619 whole entry partner): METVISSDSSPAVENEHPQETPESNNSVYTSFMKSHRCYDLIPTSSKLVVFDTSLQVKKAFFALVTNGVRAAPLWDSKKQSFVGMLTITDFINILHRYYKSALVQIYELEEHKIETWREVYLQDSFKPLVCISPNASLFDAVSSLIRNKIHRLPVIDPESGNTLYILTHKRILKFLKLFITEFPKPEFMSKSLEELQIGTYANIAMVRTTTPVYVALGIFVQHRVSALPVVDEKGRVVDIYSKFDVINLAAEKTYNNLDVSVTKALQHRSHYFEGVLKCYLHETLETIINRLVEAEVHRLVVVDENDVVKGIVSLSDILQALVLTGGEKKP
T1 sequence (Q13131 10-559 limits assumed): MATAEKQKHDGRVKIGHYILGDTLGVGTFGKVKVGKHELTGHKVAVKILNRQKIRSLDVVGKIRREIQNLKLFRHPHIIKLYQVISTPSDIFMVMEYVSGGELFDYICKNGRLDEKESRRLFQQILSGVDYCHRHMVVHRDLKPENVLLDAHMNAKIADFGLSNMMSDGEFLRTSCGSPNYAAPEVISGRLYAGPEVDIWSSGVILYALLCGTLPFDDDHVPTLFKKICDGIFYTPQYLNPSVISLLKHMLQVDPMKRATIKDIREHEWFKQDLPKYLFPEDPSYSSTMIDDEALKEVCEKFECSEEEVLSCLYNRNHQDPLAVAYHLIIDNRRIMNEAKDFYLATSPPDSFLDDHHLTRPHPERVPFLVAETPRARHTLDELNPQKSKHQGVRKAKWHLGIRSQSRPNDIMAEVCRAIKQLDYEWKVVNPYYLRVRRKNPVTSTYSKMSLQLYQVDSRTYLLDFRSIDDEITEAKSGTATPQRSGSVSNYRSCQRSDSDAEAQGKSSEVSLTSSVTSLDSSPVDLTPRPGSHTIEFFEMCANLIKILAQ
T1 sequence (Q9Y478 whole entry): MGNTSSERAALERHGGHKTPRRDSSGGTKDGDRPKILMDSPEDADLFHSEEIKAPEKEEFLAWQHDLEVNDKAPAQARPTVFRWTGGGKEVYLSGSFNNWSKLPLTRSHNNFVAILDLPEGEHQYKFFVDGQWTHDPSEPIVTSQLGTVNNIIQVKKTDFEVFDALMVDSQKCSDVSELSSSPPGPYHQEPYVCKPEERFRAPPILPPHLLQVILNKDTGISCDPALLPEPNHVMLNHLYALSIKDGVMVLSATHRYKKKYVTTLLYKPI
T1 sequence (P54619 whole entry partner): as the sequence (P54619 whole entry partner) above

| SMILES | EC150 (compound concentration showing 150% relative to the control (100%)) (human AMPK α1β1γ1 enzyme) [nM] | Emax (human AMPK α1β1γ1 enzyme) [%] | EC150 (compound concentration showing 150% relative to the control (100%)) (Human AMPK α2β2γ1) [nM] | Emax (Human AMPK α2β2γ1) [%] | Emax (maximum rate of increase in activity within the measurement range) (human AMPK α1β1γ1 enzyme) [%] |
| --- | --- | --- | --- | --- | --- |
| CC(C)(C(=O)O)[C@]1(F)CC[C@@H](Oc2nc3nc(-c4ccc(N5CCOCC5)cc4)c(Cl)cc3[nH]2)CC1 [Compound I-3-99] | 3.7 | 310 | 15 | 261 | – |
| CC(C)(C(=O)O)[C@H]1CC[C@H](Oc2nc3nc(-c4ccc(C5=CCN(C(=O)CO)CC5)cc4)c(Cl)cc3[nH]2)CC1 [Compound I-3-90] | 17 | 320 | 21 | 274 | – |
| CC(C)(C(=O)O)[C@]1(O)CC[C@@H](Oc2nc3nc(-c4ccc(N5CCOCC5)cc4)c(Cl)cc3[nH]2)CC1 [Compound I-3-24] | 0.79 | – | 11 | 271 | 318 |
| CC(C)(C(=O)O)C1CCC(Oc2nc3nc(-c4ccc(C5(CO)CC5)cc4)c(Cl)cc3[nH]2)CC1 (centres unmarked) [Compound I-3-37] | 5.6 | 257 | 5 | 237 | – |
| CN(C)C(=O)[C@H]1C[C@@H](Oc2nc3nc(-c4ccc(C5=CCC(C(=O)O)CC5)cc4)c(Cl)cc3[nH]2)C1 (some centres unmarked) [Compound I-2-129] | – | 276 | – | 339 | – |
| CN(C)C(=O)[C@]1(O)CC[C@@H](Oc2nc3nc(-c4ccc(C5=CCC(C(=O)O)CC5)cc4)c(Cl)cc3[nH]2)CC1 (some centres unmarked) [Compound I-3-54] | 270 | 201 | 2.2 | 373 | – |
| NC(=O)c1ccc(-c2ccc(-c3nc4nc(O[C@H]5CC[C@H](C(=O)O)CC5)[nH]c4cc3Cl)cc2)cc1 [Compound I-3-120] | 28 | 216 | 7 | 262 | – |
| CC(C)(C(=O)O)[C@]1(O)CC[C@@H](Oc2nc3nc(-c4ccc(N5CCCC5)cc4)c(Cl)cc3[nH]2)CC1 [Compound I-3-30] | 0.49 | 345 | 12 | 271 | – |
| CC(C)(C(=O)O)[C@H]1CC[C@H](Oc2nc3nc(-c4c(F)cc(N5CCOCC5)cc4F)ccc3[nH]2)CC1 [Compound I-3-40] | 23 | 244 | 69 | 228 | – |
| CC(=O)NC1CC=C(c2ccc(-c3nc4nc(O[C@H]5CC[C@H](CC(=O)O)CC5)[nH]c4cc3Cl)cc2)CC1 (some centres unmarked) [Compound I-2-76] | 14 | 232 | 85 | 175 | – |
| O=C1CCC(Oc2nc3nc(-c4ccc(N5CCOCC5)cc4)c(Cl)cc3[nH]2)CN1 (centres unmarked) [Compound I-1-68] | 4900 | 174 | – | – | – |
| Clc1cc2[nH]c(OC3CCOCC3)nc2nc1-c1ccc(N2CCOCC2)cc1 [Compound I-3-12] | 21 | 211 | – | – | – |
| CC(C)(C(=O)O)[C@]1(O)CC[C@@H](Oc2nc3nc(-c4ccc(N5CCOCC5)cc4)c(Cl)cc3[nH]2)CC1 [Compound I-3-83] | 24 | – | – | – | 278 |
| CC(C)(COc1nc2nc(-c3ccc(N4CCOCC4)cc3)c(Cl)cc2[nH]1)C(=O)O [Compound I-2-109] | 250 | 212 | – | – | – |
| CC(Oc1nc2nc(-c3ccc(N4CCCC4)cc3)c(Cl)cc2[nH]1)c1cc(O)no1 (centres unmarked) [Compound I-2-112] | 25 | 246 | 74 | 269 | – |
| CC(Sc1nc2nc(-c3ccc(N4CCOCC4)cc3)c(Cl)cc2[nH]1)C(=O)O (centres unmarked) [Compound I-1-39] | 160 | 258 | – | – | – |
| CN(C)C(=O)[C@H]1C[C@@H](Oc2nc3nc(-c4ccc(C5=CCC(C(=O)O)CC5)cc4F)c(Cl)cc3[nH]2)C1 (some centres unmarked) [Compound I-3-3] | 19 | 271 | – | – | – |
| O=C(O)[C@H]1C[C@H](Oc2nc3nc(-c4ccc(N5CCOCC5)cc4)c(Cl)cc3[nH]2)C1 [Compound I-2-118] | – | 194 | – | – | – |
| O=C(O)C1([C@]2(O)CC[C@@H](Oc3nc4nc(-c5ccc(N6CCOCC6)cc5)c(Cl)cc4[nH]3)CC2)CCC1 [Compound I-3-123] | 18 | 243 | – | – | – |
| CN(CCO)C(=O)N1CCC(Oc2nc3nc(-c4ccc(C5=CCC(C(=O)O)CC5)cc4)c(Cl)cc3[nH]2)CC1 (centres unmarked) [Compound I-3-2] | 1.4 | 182 | – | – | – |
| CN1CCc2cc(-c3nc4nc(O[C@H]5CC[C@](O)(C(C)(C)C(=O)O)CC5)[nH]c4cc3Cl)ccc21 [Compound I-3-52] | 2.3 | 400 | – | – | – |
| CC(Oc1nc2nc(-c3ccc(N4CCOCC4)cc3)c(Cl)cc2[nH]1)c1noc(=O)[nH]1 (centres unmarked) [Compound I-1-28] | 210 | 231 | – | – | – |
| CC(C)(C(=O)O)[C@H]1CC[C@H](Oc2nc3nc(-c4ccc(-c5ccc(C(N)=O)cc5)cc4)c(Cl)cc3[nH]2)CC1 [Compound I-3-119] | 1.6 | 300 | – | – | – |
| O=C(O)C1CC=C(c2ccc(-c3nc4nc(OC5CCOCC5)[nH]c4cc3Cl)cc2)CC1 (centres unmarked) [Compound I-3-26] | 68 | 221 | – | – | – |
| CC(Oc1nc2nc(-c3ccc(N4CCOCC4)cc3)c(Cl)cc2[nH]1)C(C)(C)C(=O)O (centres unmarked) [Compound I-2-121] | 160 | 258 | – | – | – |
| CC(Oc1nc2nc(-c3ccc(N4CCCC4)cc3)c(Cl)cc2[nH]1)c1noc(=O)[nH]1 (centres unmarked) [Compound I-2-114] | 49 | 215 | – | – | – |
| O=C(O)C[C@H]1CC[C@H](Oc2nc3nc(-c4ccc(C5=CCOCC5)cc4)c(Cl)cc3[nH]2)CC1 [Compound I-2-85] | 18 | 255 | – | – | – |
| CC(C)(CO)C1CCC(Oc2nc3nc(-c4ccc(N5CCOCC5)cc4)c(Cl)cc3[nH]2)CC1 (centres unmarked) [Compound I-3-89] | – | 236 | – | – | – |
